Patent publication US20080194574A1, “Pyrazine Derivatives As Effective Compounds Against Infectious Diseases” (AXXIMA PHARMACEUTICALS AG, priority 2003, published 2008)

molecular target: T1, viral kinase pUL-97 (Human cytomegalovirus, UniProt P16788); experiment: UL97 kinase assay on Immobilon plate; type: biochemical; conditions: inhibition of UL 97 kinase activity; class by IC50 / % inhibition at 10 μM or 100 μM; read-out: Activity Class [A, B, C]
T1 construct: The pUL-97 gene was cloned into a baculovirus vector; GST (glutathione S-transferase) (N); made in house; host or cells: Sf9 insect cells, baculovirus
T1 sequence (P16788 whole entry): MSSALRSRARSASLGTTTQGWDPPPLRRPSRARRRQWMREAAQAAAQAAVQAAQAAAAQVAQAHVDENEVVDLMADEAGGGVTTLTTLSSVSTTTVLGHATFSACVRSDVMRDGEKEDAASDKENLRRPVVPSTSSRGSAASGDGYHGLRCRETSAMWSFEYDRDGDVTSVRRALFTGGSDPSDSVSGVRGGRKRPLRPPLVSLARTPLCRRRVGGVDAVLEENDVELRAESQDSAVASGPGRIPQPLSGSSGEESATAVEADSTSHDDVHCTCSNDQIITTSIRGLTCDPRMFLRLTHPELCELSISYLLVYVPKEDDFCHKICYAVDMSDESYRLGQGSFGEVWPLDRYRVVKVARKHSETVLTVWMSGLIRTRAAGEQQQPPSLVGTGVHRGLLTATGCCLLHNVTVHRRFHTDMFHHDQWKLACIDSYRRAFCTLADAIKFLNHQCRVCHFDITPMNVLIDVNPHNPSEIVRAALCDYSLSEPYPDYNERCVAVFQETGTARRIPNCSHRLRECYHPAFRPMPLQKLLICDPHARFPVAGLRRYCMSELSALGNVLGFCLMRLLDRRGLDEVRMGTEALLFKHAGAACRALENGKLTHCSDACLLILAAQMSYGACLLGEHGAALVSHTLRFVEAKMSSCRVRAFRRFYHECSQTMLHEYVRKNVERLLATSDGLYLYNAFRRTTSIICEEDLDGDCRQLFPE
How it was run: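 Compound was titrated into a radiometric reaction of Sf9-expressed GST-UL97 kinase, incubated 1 h at 30 °C in Tris-HCl pH 7.5/MnCl2/DTT buffer before EDTA stop. MBP substrate and ATP (3 μM in the added assay buffer) were supplied with γ-[33P]ATP. Labelled product bound to Immobilon filter was washed and counted by scintillation.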

Structure (SMILES)	IC50
COc1ccc(N2CCN(c3cncc(-c4ccccc4C)n3)CC2)cc1OC [compound 262, 4-(3,4-Dimethoxy-phenyl)-6′-o-tolyl-3,4,5,6-tetrahydro-2H-[1,2′]bipyrazinyl]	10 to 100 µM
COc1ccc(N2CCN(c3cncc(-c4ccccc4CO)n3)CC2)cc1OC [compound 264, {2-[4-(3,4-Dimethoxy-phenyl)-3,4,5,6-tetrahydro-2H-[1,2′]bipyrazinyl-6′-yl]-phenyl}-methanol]	10 to 100 µM
CCOc1ccc(-c2cncc(N3CCN(c4ccc(C)cc4)CC3)n2)cc1 [compound 266, 6′-(4-Ethoxy-phenyl)-4-p-tolyl-3,4,5,6-tetrahydro-2H-[1,2′]bipyrazinyl]	10 to 100 µM
Fc1ccc(N2CCN(c3cncc(-c4ccc5ccccc5c4)n3)CC2)cc1 [compound 267, 4-(4-Fluoro-phenyl)-6′-naphthalen-2-yl-3,4,5,6-tetrahydro-2H-[1,2′]bipyrazinyl]	< 1 µM
Fc1ccc(N2CCN(c3cncc(-c4ccc(-c5ccccc5)c(F)c4)n3)CC2)cc1 [compound 268, 6′-(2-Fluoro-biphenyl-4-yl)-4-(4-fluoro-phenyl)-3,4,5,6-tetrahydro-2H-[1,2′]bipyrazinyl]	10 to 100 µM
OCc1ccc(-c2cncc(N3CCN(c4ccc(F)cc4)CC3)n2)cc1 [compound 269, {4-[4-(4-Fluoro-phenyl)-3,4,5,6-tetrahydro-2H-[1,2′]bipyrazinyl-6′-yl]-phenyl}-methanol]	1 to 10 µM
CCOc1ccc(-c2cncc(N3CCN(c4ccc(F)cc4)CC3)n2)cc1 [compound 271, 6′-(4-Ethoxy-phenyl)-4-(4-fluoro-phenyl)-3,4,5,6-tetrahydro-2H-[1,2′]bipyrazinyl]	10 to 100 µM
CC(=O)c1cccc(-c2cncc(N3CCN(c4ccc(F)cc4F)CC3)n2)c1 [compound 273, 1-{3-[4-(2,4-Difluoro-phenyl)-3,4,5,6-tetrahydro-2H-[1,2′]bipyrazinyl-6′-yl]-phenyl}-ethanone]	10 to 100 µM
CSc1ccc(-c2cncc(N3CCN(c4ccc(F)cc4F)CC3)n2)cc1 [compound 274, 4-(2,4-Difluoro-phenyl)-6′-(4-methylsulfanyl-phenyl)-3,4,5,6-tetrahydro-2H-[1,2′]bipyrazinyl]	1 to 10 µM
CC(=O)c1ccc(N2CCN(c3cncc(-c4ccc(F)cc4)n3)CC2)cc1 [compound 276, 1-{4-[6′-(4-Fluoro-phenyl)-2,3,5,6-tetrahydro-[1,2′]bipyrazinyl-4-yl]-phenyl}-ethanone]	1 to 10 µM
c1ccc(C2CCN(c3cncc(-c4ccoc4)n3)CC2)cc1 [compound 277, 2-Furan-3-yl-6-(4-phenyl-piperidin-1-yl)-pyrazine]	10 to 100 µM
CN(C)c1ccc(-c2cncc(N3CCC(c4ccccc4)CC3)n2)cc1 [compound 280, Dimethyl-{4-[6-(4-phenyl-piperidin-1-yl)-pyrazin-2-yl]-phenyl}-amine]	1 to 10 µM
Cc1ccc(N2CCN(c3cncc(-c4ccc(F)c(Cl)c4)n3)CC2)c(C)c1 [compound 281, 6′-(3-Chloro-4-fluoro-phenyl)-4-(2,4-dimethyl-phenyl)-3,4,5,6-tetrahydro-2H-[1,2′]bipyrazinyl]	10 to 100 µM
COc1cccc(N2CCN(c3cncc(-c4ccc(C)cc4)n3)CC2)c1 [compound 284, 4-(3-Methoxy-phenyl)-6′-p-tolyl-3,4,5,6-tetrahydro-2H-[1,2′]bipyrazinyl]	1 to 10 µM
COc1cccc(N2CCN(c3cncc(-c4csc5ccccc45)n3)CC2)c1 [compound 286, 6′-Benzo[b]thiophen-3-yl-4-(3-methoxy-phenyl)-3,4,5,6-tetrahydro-2H-[1,2′]bipyrazinyl]	1 to 10 µM
Clc1ccc(N2CCN(c3cncc(-c4cccc5ccccc45)n3)CC2)cc1Cl [compound 287, 4-(3,4-Dichloro-phenyl)-6′-naphthalen-1-yl-3,4,5,6-tetrahydro-2H-[1,2′]bipyrazinyl]	10 to 100 µM
COc1ccc(-c2cncc(N3CCN(c4ccc(C)cc4C)CC3)n2)cc1OC [compound 288]	10 to 100 µM
COc1ccc(N2CCN(c3cncc(-c4ccc(C(N)=O)cc4)n3)CC2)cc1 [compound 290, 4-[4-(4-Methoxy-phenyl)-3,4,5,6-tetrahydro-2H-[1,2′]bipyrazinyl-6′-yl]-benzamide]	< 1 µM
COc1ccc(N2CCN(c3cncc(-c4ccccc4)n3)CC2)cc1 [compound 291, 4-(4-Methoxy-phenyl)-6′-phenyl-3,4,5,6-tetrahydro-2H-[1,2′]bipyrazinyl]	10 to 100 µM
COc1ccc(N2CCN(c3cncc(-c4cc5ccccc5s4)n3)CC2)cc1 [compound 292, 6′-Benzo[b]thiophen-2-yl-4-(4-methoxy-phenyl)-3,4,5,6-tetrahydro-2H-[1,2′]bipyrazinyl]	1 to 10 µM
COc1ccc(N2CCN(c3cncc(-c4ccc(C#N)cc4)n3)CC2)cc1 [compound 293, 4-[4-(4-Methoxy-phenyl)-3,4,5,6-tetrahydro-2H-[1,2′]bipyrazinyl-6′-yl]-benzonitrile]	1 to 10 µM
CC(=O)c1ccc(-c2cncc(N3CCN(c4cccc(C)c4C)CC3)n2)s1 [compound 296, 1-{5-[4-(2,3-Dimethyl-phenyl)-3,4,5,6-tetrahydro-2H-[1,2′]bipyrazinyl-6′-yl]-thiophen-2-yl}-ethanone]	10 to 100 µM
CC(=O)c1cccc(-c2cncc(N3CCN(c4cccc(C)c4C)CC3)n2)c1 [compound 297, 1-{3-[4-(2,3-Dimethyl-phenyl)-3,4,5,6-tetrahydro-2H-[1,2′]bipyrazinyl-6′-yl]-phenyl}-ethanone]	10 to 100 µM
CC(=O)c1ccc(-c2cncc(N3CCN(c4cccc(C)c4C)CC3)n2)cc1 [compound 298, 1-{4-[4-(2,3-Dimethyl-phenyl)-3,4,5,6-tetrahydro-2H-[1,2′]bipyrazinyl-6′-yl]-phenyl}-ethanone]	10 to 100 µM
Cc1cccc(N2CCN(c3cncc(-c4ccc(C(N)=O)cc4)n3)CC2C)c1 (stereo not shown) [compound 299, 4-(3-Methyl-4-m-tolyl-3,4,5,6-tetrahydro-2H-[1,2′]bipyrazinyl-6′-yl)-benzamide]	1 to 10 µM

Second part, the compound after the results:

IC50	Structure (SMILES)
10 to 100 µM	COc1ccc(N2CCN(c3cncc(-c4ccc(C(C)(C)C)cc4)n3)CC2)cc1OC [compound 263, 6′-(4-tert-Butyl-phenyl)-4-(3,4-dimethoxy-phenyl)-3,4,5,6-tetrahydro-2H-[1,2′]bipyrazinyl]
10 to 100 µM	COc1ccc(-c2cncc(N3CCN(c4ccc(C)cc4)CC3)n2)cc1F [compound 265, 6′-(3-Fluoro-4-methoxy-phenyl)-4-p-tolyl-3,4,5,6-tetrahydro-2H-[1,2′]bipyrazinyl]
10 to 100 µM	Fc1ccc(N2CCN(c3cncc(-c4ccoc4)n3)CC2)cc1 [compound 270, 4-(4-Fluoro-phenyl)-6′-furan-3-yl-3,4,5,6-tetrahydro-2H-[1,2′]bipyrazinyl]
1 to 10 µM	Fc1ccc(N2CCN(c3cncc(-c4cc5ccccc5s4)n3)CC2)c(F)c1 [compound 272, 6′-Benzo[b]thiophen-2-yl-4-(2,4-difluoro-phenyl)-3,4,5,6-tetrahydro-2H-[1,2′]bipyrazinyl]
1 to 10 µM	CC(=O)c1ccc(-c2cncc(N3CCN(c4ccc(F)cc4F)CC3)n2)cc1 [compound 275, 1-{4-[4-(2,4-Difluoro-phenyl)-3,4,5,6-tetrahydro-2H-[1,2′]bipyrazinyl-6′-yl]-phenyl}-ethanone]
10 to 100 µM	COc1ccc(-c2cncc(N3CCC(c4ccccc4)CC3)n2)cc1F [compound 278, 2-(3-Fluoro-4-methoxy-phenyl)-6-(4-phenyl-piperidin-1-yl)-pyrazine]
10 to 100 µM	Cc1cccc(N2CCN(c3cncc(-c4csc5ccccc45)n3)CC2C)c1 (stereo not shown) [compound 279, 6′-Benzo[b]thiophen-3-yl-3-methyl-4-m-tolyl-3,4,5,6-tetrahydro-2H-[1,2′]bipyrazinyl]
1 to 10 µM	COc1ccc(N2CCN(c3cncc(-c4cc5ccccc5o4)n3)CC2)cc1 [compound 282, 6′-Benzofuran-2-yl-4-(4-methoxy-phenyl)-3,4,5,6-tetrahydro-2H-[1,2′]bipyrazinyl]
1 to 10 µM	COc1ccc(N2CCN(c3cncc(-c4csc5ccccc45)n3)CC2)cc1 [compound 283, 6′-Benzo[b]thiophen-3-yl-4-(4-methoxy-phenyl)-3,4,5,6-tetrahydro-2H-[1,2′]bipyrazinyl]
1 to 10 µM	COc1cccc(N2CCN(c3cncc(-c4cc5ccccc5o4)n3)CC2)c1 [compound 285, 6′-Benzofuran-2-yl-4-(3-methoxy-phenyl)-3,4,5,6-tetrahydro-2H-[1,2′]bipyrazinyl]
10 to 100 µM	CC(=O)c1ccc(-c2cncc(N3CCN(c4ccc(C)cc4C)CC3)n2)s1 [compound 289, 1-{5-[4-(2,4-Dimethyl-phenyl)-3,4,5,6-tetrahydro-2H-[1,2′]bipyrazinyl-6′-yl]-thiophen-2-yl}-ethanone]
10 to 100 µM	COc1ccc(N2CCN(c3cncc(-c4cccc(OC)c4)n3)CC2)cc1 [compound 294, 4-(4-Methoxy-phenyl)-6′-(3-methoxy-phenyl)-3,4,5,6-tetrahydro-2H-[1,2′]bipyrazinyl]
10 to 100 µM	Cc1cccc(N2CCN(c3cncc(-c4cc5ccccc5s4)n3)CC2)c1C [compound 295, 6′-Benzo[b]thiophen-2-yl-4-(2,3-dimethyl-phenyl)-3,4,5,6-tetrahydro-2H-[1,2′]bipyrazinyl]
10 to 100 µM	Cc1cccc(N2CCN(c3cncc(-c4cc5ccccc5s4)n3)CC2C)c1 (stereo not shown) [compound 300, 6′-Benzo[b]thiophen-2-yl-3-methyl-4-m-tolyl-3,4,5,6-tetrahydro-2H-[1,2′]bipyrazinyl]
10 to 100 µM	CSc1ccc(-c2cncc(N3CCN(c4cccc(C)c4)C(C)C3)n2)cc1 (stereo not shown) [compound 301, 3-Methyl-6′-(4-methylsulfanyl-phenyl)-4-m-tolyl-3,4,5,6-tetrahydro-2H-[1,2′]bipyrazinyl]
